Experimental data as given in ChEMBL document CHEMBL6103575, “Design, synthesis and evaluation of (E)-1-(4-(2-(1H-pyrazol-5-yl)vinyl)phenyl) derivatives as next generation selective RET inhibitors overcoming RET solvent front mutations (G810C/R)” (Eur J Med Chem, 2025).

Key:
[1] = target: T1, Ephrin type-B receptor 4 (Homo sapiens) (UniProt P54760); assay: Inhibition of EPHB4 (unknown origin) at 1 uM relative to control
T1 sequence (whole entry): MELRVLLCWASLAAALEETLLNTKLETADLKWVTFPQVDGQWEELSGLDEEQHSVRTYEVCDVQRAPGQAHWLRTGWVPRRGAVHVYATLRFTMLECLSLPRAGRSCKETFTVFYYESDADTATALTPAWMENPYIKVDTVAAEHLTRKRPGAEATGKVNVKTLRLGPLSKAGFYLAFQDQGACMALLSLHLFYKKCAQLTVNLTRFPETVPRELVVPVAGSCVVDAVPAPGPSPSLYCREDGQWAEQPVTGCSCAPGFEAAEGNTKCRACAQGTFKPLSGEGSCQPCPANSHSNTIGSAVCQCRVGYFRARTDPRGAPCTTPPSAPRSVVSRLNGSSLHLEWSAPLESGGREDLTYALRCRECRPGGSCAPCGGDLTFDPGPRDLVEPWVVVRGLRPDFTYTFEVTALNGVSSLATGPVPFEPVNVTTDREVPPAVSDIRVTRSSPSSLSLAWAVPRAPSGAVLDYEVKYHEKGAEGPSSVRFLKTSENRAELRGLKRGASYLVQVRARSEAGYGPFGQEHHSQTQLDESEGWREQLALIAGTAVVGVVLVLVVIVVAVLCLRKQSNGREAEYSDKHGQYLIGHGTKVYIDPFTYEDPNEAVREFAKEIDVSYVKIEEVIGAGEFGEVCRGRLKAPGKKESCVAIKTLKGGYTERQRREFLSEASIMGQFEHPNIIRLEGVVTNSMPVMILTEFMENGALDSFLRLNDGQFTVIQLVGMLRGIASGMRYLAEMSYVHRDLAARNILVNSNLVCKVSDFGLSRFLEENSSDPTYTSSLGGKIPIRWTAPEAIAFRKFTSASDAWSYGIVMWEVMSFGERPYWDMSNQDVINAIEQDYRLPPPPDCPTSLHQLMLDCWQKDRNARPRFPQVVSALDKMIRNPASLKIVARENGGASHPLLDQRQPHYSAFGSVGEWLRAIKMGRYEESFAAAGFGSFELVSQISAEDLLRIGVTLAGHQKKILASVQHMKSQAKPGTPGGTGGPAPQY

[2] = Induction of apoptosis in mouse BaF3 cells harboring CCDC6-RET assessed as necrotic cells at 10 nM incubated for 48 hrs by Annexin V-PE staining based flow cytometry analysis (Rvb =0.19%); type: functional
[3] = Induction of apoptosis in mouse BaF3 cells harboring CCDC6-RET assessed as late apoptotic cells at 30 nM incubated for 48 hrs by Annexin V-PE staining based flow cytometry analysis (Rvb =2.44%); type: functional
[4] = Induction of apoptosis in mouse BaF3 cells harboring CCDC6-RET assessed as late apoptotic cells at 100 nM incubated for 48 hrs by Annexin V-PE staining based flow cytometry analysis (Rvb =2.44%); type: functional
[5] = Induction of apoptosis in mouse BaF3 cells harboring CCDC6-RET assessed as necrotic cells at 100 nM incubated for 48 hrs by Annexin V-PE staining based flow cytometry analysis (Rvb =0.19%); type: functional
[6] = Induction of apoptosis in mouse BaF3 cells harboring CCDC6-RET G810C mutant assessed as early apoptotic cells at 10 nM incubated for 48 hrs by Annexin V-PE staining based flow cytometry analysis (Rvb =8.74%); type: functional
[7] = Induction of apoptosis in mouse BaF3 cells harboring CCDC6-RET G810R mutant assessed as viable cells at 30 nM incubated for 48 hrs by Annexin V-PE staining based flow cytometry analysis (Rvb =86.40%); type: functional; conditions: read-out: Activity
[8] = Induction of apoptosis in mouse BaF3 cells harboring CCDC6-RET G810R mutant assessed as necrotic cells at 30 nM incubated for 48 hrs by Annexin V-PE staining based flow cytometry analysis (Rvb =0.30%); type: functional
[9] = Induction of apoptosis in mouse BaF3 cells harboring CCDC6-RET G810R mutant assessed as viable cells at 100 nM incubated for 48 hrs by Annexin V-PE staining based flow cytometry analysis (Rvb =86.40%); type: functional; conditions: read-out: Activity
[10] = Induction of apoptosis in mouse BaF3 cells harboring CCDC6-RET G810R mutant assessed as viable cells at 300 nM incubated for 48 hrs by Annexin V-PE staining based flow cytometry analysis (Rvb =86.40%); type: functional; conditions: read-out: Activity
[11] = Induction of apoptosis in mouse BaF3 cells harboring CCDC6-RET G810R mutant assessed as early apoptotic cells at 100 nM incubated for 48 hrs by Annexin V-PE staining based flow cytometry analysis (Rvb =10 %); type: functional
[12] = Induction of cell cycle arrest in mouse BaF3 cells harboring CCDC6-RET assessed as accumulation of cells at G2/M phase at 10 nM incubated for 24 hrs by propidium iodide staining based analysis (reference value: 34.11%); type: functional
[13] = Induction of cell cycle arrest in mouse BaF3 cells harboring CCDC6-RET assessed as accumulation of cells at S phase at 30 nM incubated for 24 hrs by propidium iodide staining based analysis (reference value: 13.27%); type: functional
[14] = Induction of cell cycle arrest in mouse BaF3 cells harboring CCDC6-RET assessed as accumulation of cells at G0/G1 phase at 100 nM incubated for 24 hrs by propidium iodide staining based analysis (reference value: 52.51%); type: functional
[15] = Induction of cell cycle arrest in mouse BaF3 cells harboring CCDC6-RET assessed as accumulation of cells at S phase at 300 nM incubated for 24 hrs by propidium iodide staining based analysis (reference value: 13.27%); type: functional
[16] = Induction of cell cycle arrest in mouse BaF3 cells harboring CCDC6-RET G810C mutant assessed as accumulation of cells at S phase at 30 nM incubated for 24 hrs by propidium iodide staining based analysis (reference value: 12.47%); type: functional
[17] = Induction of cell cycle arrest in mouse BaF3 cells harboring CCDC6-RET G810C mutant assessed as accumulation of cells at S phase at 300 nM incubated for 24 hrs by propidium iodide staining based analysis (reference value: 12.47%); type: functional
[18] = Induction of cell cycle arrest in mouse BaF3 cells harboring CCDC6-RET G810R mutant assessed as accumulation of cells at S phase at 30 nM incubated for 24 hrs by propidium iodide staining based analysis (reference value: 13.66%); type: functional
BaF3 [19] = assay: Inhibition of RET phosphorylation in mouse BaF3 cells harboring CCDC6-RET G810R mutant incubated for 12 hrs by Western blotting analysis; type: cell-based; conditions: dose <= 300.0 nM
BaF3 [20] = assay: Antitumor activity against mouse BaF3 cells implanted in SCID mouse assessed as tumor growth inhibition at 25 mg/kg, ip administered once daily for 10 days; type: functional; conditions: BaF3, 240 h, time 10 day, read-out: TGI
[21] = Toxicity in SCID mouse implanted with mouse BaF3 cells assessed as change in body weight at 25 mg/kg, ip administered once daily for 10 days; type: organism-based; conditions: in vivo, 240 h, time 10 day

`COc1cncc(-c2cn[nH]c2/C=C/c2ccc(NC(=O)Nc3cc(C(C)(C)C(F)(F)F)on3)c(Cl)c2)c1` gave an inhibition [1] of 92.9%, an Activity [2] of 0.14% and an Activity [3] of 0.8%. The Activity [4] was 1.21%, the Activity [5] was 0.05% and the Activity [6] was 9.11%. It also gave a viability at 0.03 µM [7] of 87.4%, an Activity [8] of 0.14% and a viability at 0.1 µM [9] of 74%. For the same molecule, the viability at 0.3 µM [10] was 22.5%, the Activity [11] was 2.7% and the Activity [12] was 32.46%. The Activity [13] was 13.33%, the Activity [14] was 69.43% and the Activity [15] was 3.34%. The Activity [16] was 11.11%, the Activity [17] was 4.14% and the Activity [18] was 14.08%. The inhibition (BaF3 [19]) was “Dose-dependent-effect”, the inhibition in vivo at 25 mg/kg (BaF3 [20]) was 39.7% and the Activity [21] was “Non-toxic”.
